Test results published in ChEMBL document CHEMBL3885881, “DrugMatrix”.

Species on record: Rattus norvegicus
Assay: DrugMatrix - Regimen: Daily Repeat
Type: toxicity, organism-based, Sprague-Dawley
Design: regimen Daily Repeat, gender Male, age 6-8 weeks
Details: in vivo, po, route oral GAVAGE, vehicle .5 % CMC; for ABSOLUTE BASOPHIL / ABSOLUTE EOSINOPHIL / ABSOLUTE LYMPHOCYTE / ABSOLUTE MONOCYTE / ABSOLUTE SEGMENTED NEUTROPHIL / BASOPHIL / EOSINOPHIL / ERYTHROCYTE COUNT / HEMATOCRIT / HEMOGLOBIN / LEUKOCYTE COUNT / LYMPHOCYTE / MEAN CORPUSCULAR HEMOGLOBIN / MEAN CORPUSCULAR HEMOGLOBIN CONCENTRATION / MEAN CORPUSCULAR VOLUME / MONOCYTE / NEUTROPHIL / NUCLEATED RED BLOOD CELLS / PLATELET COUNT: tissue Blood; for ALANINE AMINOTRANSFERASE / ALBUMIN / ALKALINE PHOSPHATASE / ASPARTATE AMINOTRANSFERASE / BLOOD UREA NITROGEN / CARBON DIOXIDE / CHLORIDE / CHOLESTEROL / CREATINE PHOSPHOKINASE / CREATININE / GLUCOSE / LACTATE DEHYDROGENASE / LIPASE / PHOSPHORUS / POTASSIUM / SODIUM / TOTAL BILIRUBIN / TOTAL PROTEIN / URIC ACID: tissue Plasma
[1] = 75 mg/kg, 72 h, dose level Low, time 3 day
[2] = 75 mg/kg, 120 h, dose level Low, time 5 day
[3] = 750 mg/kg, 72 h, dose level High, time 3 day
[4] = 750 mg/kg, 120 h, dose level High, time 5 day

CC(=O)OC[C@H]1O[C@@H](n2ncc(=O)[nH]c2=O)[C@H](OC(C)=O)[C@@H]1OC(C)=O [AZARIBINE]
ABSOLUTE BASOPHIL [1]: 0 CELLS/uL | ABSOLUTE EOSINOPHIL [1]: 0 CELLS/uL | ABSOLUTE LYMPHOCYTE [1]: 12537.67 CELLS/uL | ABSOLUTE MONOCYTE [1]: 196 CELLS/uL | ABSOLUTE SEGMENTED NEUTROPHIL [1]: 1699.67 CELLS/uL | BASOPHIL [1]: 0% | EOSINOPHIL [1]: 0% | ERYTHROCYTE COUNT [1]: 5.31 x10E6/uL | HEMATOCRIT [1]: 32.6% | HEMOGLOBIN [1]: 12.37 G/DL | LEUKOCYTE COUNT [1]: 14.43 x10E3/uL | LYMPHOCYTE [1]: 87% | MEAN CORPUSCULAR HEMOGLOBIN [1]: 23.3 pg | MEAN CORPUSCULAR HEMOGLOBIN CONCENTRATION [1]: 37.93 G/DL | MEAN CORPUSCULAR VOLUME [1]: 61.4 fL | MONOCYTE [1]: 1.33% | NEUTROPHIL [1]: 11.67% | NUCLEATED RED BLOOD CELLS [1]: 0 /100WBC | PLATELET COUNT [1]: 1235.33 x10E3/uL | ALANINE AMINOTRANSFERASE [1]: 37 u/L | ALBUMIN [1]: 4.13 G/DL | ALKALINE PHOSPHATASE [1]: 384.67 u/L | ASPARTATE AMINOTRANSFERASE [1]: 74.67 u/L | BLOOD UREA NITROGEN [1]: 16.33 mg/dL | CARBON DIOXIDE [1]: 24.33 mmol/L | CHLORIDE [1]: 100.67 MEQ/L | CHOLESTEROL [1]: 73 mg/dL | CREATINE PHOSPHOKINASE [1]: 254.33 u/L | CREATININE [1]: 0.25 mg/dL | GLUCOSE [1]: 157.67 mg/dL | LACTATE DEHYDROGENASE [1]: 151 u/L | LIPASE [1]: 10.33 u/L | PHOSPHORUS [1]: 12.53 mg/dL | POTASSIUM [1]: 5.81 MEQ/L | SODIUM [1]: 141.13 MEQ/L | TOTAL BILIRUBIN [1]: 0.17 mg/dL | TOTAL PROTEIN [1]: 6.2 G/DL | URIC ACID [1]: 1.1 mg/dL | ABSOLUTE BASOPHIL [2]: 0 CELLS/uL | ABSOLUTE EOSINOPHIL [2]: 42.67 CELLS/uL | ABSOLUTE LYMPHOCYTE [2]: 10939.33 CELLS/uL | ABSOLUTE MONOCYTE [2]: 627 CELLS/uL | ABSOLUTE SEGMENTED NEUTROPHIL [2]: 1691 CELLS/uL | BASOPHIL [2]: 0% | EOSINOPHIL [2]: 0.33% | ERYTHROCYTE COUNT [2]: 5.34 x10E6/uL | HEMATOCRIT [2]: 32.93% | HEMOGLOBIN [2]: 12.57 G/DL | LEUKOCYTE COUNT [2]: 13.3 x10E3/uL | LYMPHOCYTE [2]: 82.33% | MEAN CORPUSCULAR HEMOGLOBIN [2]: 23.53 pg | MEAN CORPUSCULAR HEMOGLOBIN CONCENTRATION [2]: 38.17 G/DL | MEAN CORPUSCULAR VOLUME [2]: 61.67 fL | MONOCYTE [2]: 4.67% | NEUTROPHIL [2]: 12.67% | NUCLEATED RED BLOOD CELLS [2]: 0 /100WBC | PLATELET COUNT [2]: 932 x10E3/uL | ALANINE AMINOTRANSFERASE [2]: 43.33 u/L | ALBUMIN [2]: 3.93 G/DL | ALKALINE PHOSPHATASE [2]: 273 u/L | ASPARTATE AMINOTRANSFERASE [2]: 76 u/L | BLOOD UREA NITROGEN [2]: 16.67 mg/dL | CARBON DIOXIDE [2]: 33 mmol/L | CHLORIDE [2]: 95.33 MEQ/L | CHOLESTEROL [2]: 74 mg/dL | CREATINE PHOSPHOKINASE [2]: 309 u/L | CREATININE [2]: 0.2 mg/dL | GLUCOSE [2]: 150 mg/dL | LACTATE DEHYDROGENASE [2]: 226 u/L | LIPASE [2]: 10.33 u/L | PHOSPHORUS [2]: 12.03 mg/dL | POTASSIUM [2]: 6.04 MEQ/L | SODIUM [2]: 140.6 MEQ/L | TOTAL BILIRUBIN [2]: 0.1 mg/dL | TOTAL PROTEIN [2]: 5.93 G/DL | URIC ACID [2]: 1.33 mg/dL | ABSOLUTE BASOPHIL [3]: 0 CELLS/uL | ABSOLUTE EOSINOPHIL [3]: 37.33 CELLS/uL | ABSOLUTE LYMPHOCYTE [3]: 11597.33 CELLS/uL | ABSOLUTE MONOCYTE [3]: 87.33 CELLS/uL | ABSOLUTE SEGMENTED NEUTROPHIL [3]: 844.67 CELLS/uL | BASOPHIL [3]: 0% | EOSINOPHIL [3]: 0.33% | ERYTHROCYTE COUNT [3]: 4.98 x10E6/uL | HEMATOCRIT [3]: 31.27% | HEMOGLOBIN [3]: 11.73 G/DL | LEUKOCYTE COUNT [3]: 12.57 x10E3/uL | LYMPHOCYTE [3]: 92% | MEAN CORPUSCULAR HEMOGLOBIN [3]: 23.63 pg | MEAN CORPUSCULAR HEMOGLOBIN CONCENTRATION [3]: 37.53 G/DL | MEAN CORPUSCULAR VOLUME [3]: 62.9 fL | MONOCYTE [3]: 0.67% | NEUTROPHIL [3]: 7% | NUCLEATED RED BLOOD CELLS [3]: 0 /100WBC | PLATELET COUNT [3]: 1125.67 x10E3/uL | ALANINE AMINOTRANSFERASE [3]: 29 u/L | ALBUMIN [3]: 4.23 G/DL | ALKALINE PHOSPHATASE [3]: 344 u/L | ASPARTATE AMINOTRANSFERASE [3]: 95.33 u/L | BLOOD UREA NITROGEN [3]: 18 mg/dL | CARBON DIOXIDE [3]: 25.67 mmol/L | CHLORIDE [3]: 101 MEQ/L | CHOLESTEROL [3]: 66 mg/dL | CREATINE PHOSPHOKINASE [3]: 781.33 u/L | CREATININE [3]: 0.22 mg/dL | GLUCOSE [3]: 147.33 mg/dL | LACTATE DEHYDROGENASE [3]: 248.33 u/L | LIPASE [3]: 10.33 u/L | PHOSPHORUS [3]: 12.2 mg/dL | POTASSIUM [3]: 5.97 MEQ/L | SODIUM [3]: 141.5 MEQ/L | TOTAL BILIRUBIN [3]: 0.2 mg/dL | TOTAL PROTEIN [3]: 6.1 G/DL | URIC ACID [3]: 1.43 mg/dL | ABSOLUTE BASOPHIL [4]: 0 CELLS/uL | ABSOLUTE EOSINOPHIL [4]: 49.33 CELLS/uL | ABSOLUTE LYMPHOCYTE [4]: 12972.67 CELLS/uL | ABSOLUTE MONOCYTE [4]: 95.67 CELLS/uL | ABSOLUTE SEGMENTED NEUTROPHIL [4]: 649 CELLS/uL | BASOPHIL [4]: 0% | EOSINOPHIL [4]: 0.33% | ERYTHROCYTE COUNT [4]: 5 x10E6/uL | HEMATOCRIT [4]: 29.63% | HEMOGLOBIN [4]: 11.47 G/DL | LEUKOCYTE COUNT [4]: 13.77 x10E3/uL | LYMPHOCYTE [4]: 94.33% | MEAN CORPUSCULAR HEMOGLOBIN [4]: 22.93 pg | MEAN CORPUSCULAR HEMOGLOBIN CONCENTRATION [4]: 38.7 G/DL | MEAN CORPUSCULAR VOLUME [4]: 59.27 fL | MONOCYTE [4]: 0.67% | NEUTROPHIL [4]: 4.67% | NUCLEATED RED BLOOD CELLS [4]: 0 /100WBC | PLATELET COUNT [4]: 1279 x10E3/uL | ALANINE AMINOTRANSFERASE [4]: 26.67 u/L | ALBUMIN [4]: 4.07 G/DL | ALKALINE PHOSPHATASE [4]: 306.67 u/L | ASPARTATE AMINOTRANSFERASE [4]: 81.33 u/L | BLOOD UREA NITROGEN [4]: 15.33 mg/dL | CARBON DIOXIDE [4]: 30.33 mmol/L | CHLORIDE [4]: 98.67 MEQ/L | CHOLESTEROL [4]: 73.67 mg/dL | CREATINE PHOSPHOKINASE [4]: 266 u/L | CREATININE [4]: 0.22 mg/dL | GLUCOSE [4]: 135.67 mg/dL | LACTATE DEHYDROGENASE [4]: 347 u/L | LIPASE [4]: 10 u/L | PHOSPHORUS [4]: 11.07 mg/dL | POTASSIUM [4]: 6.41 MEQ/L | SODIUM [4]: 142.17 MEQ/L | TOTAL BILIRUBIN [4]: 0.1 mg/dL | TOTAL PROTEIN [4]: 6 G/DL | URIC ACID [4]: 1.37 mg/dL
